Data from the NIST ThermoML archive (doi:10.1016/j.jct.2016.07.023).
Numbers after ± are expanded uncertainties.

Settings: 303.15 K; 101.1 kPa; Crystal; flotation method

- mass density: 1528.6 ± 2.7 kg/m3
SMILES: Cc1cc(C(=O)O)ccc1[N+](=O)[O-] [3-methyl-4-nitrobenzoic acid]
